Like-named read-outs stand apart in the source and are kept apart here.
Tests used:
[1] = test system: superior mesenteric artery (contracted by potassium chloride); test: Vessel Smooth Muscle Relaxation Action (V.R.); type: cell-based, rabbit; conditions: Oryctolagus cuniculus, read-out: V.R. (ED50)
Text: The specimen was suspended by loading a strain in Krebs-Henseleit solution through which an oxygen gas containing 5% carbon dioxide was bubbled. The specimen was contracted by adding potassium chloride to maintain a predetermined strain. Thereafter, a test compound was cumulatively administrated.

washed platelets = test: Platelet Agglutination Inhibition (P.A.), collagen-induced; type: cell-based, human (healthy person); conditions: Homo sapiens, read-out: P.A. (IC50)
Procedure: To this suspension was added one sixth volume of ACD solution, and the whole was further centrifuged at 1500×G for 5 minutes to prepare a platelet pellet. The platelet pellet was then suspended in a modified HEPES Tyrode solution to obtain about 3×10^5 /μl in washed platelet suspension.
To 270 μl of the washed platelet suspension was added 3 μl of a solution of a test compound dissolved in an appropriate medium in different concentration, and the mixture was pre-incubated at 37° C. for 2 minutes.
As a control, the above-mentioned procedure was carried out except that the test medium without a test compound was used, and the absorbance before addition of collagen and the maximum absorbance after addition of collagen were measured, and the difference between both absorbances was taken as 100% agglutination.
For test compound, the absorbance before an addition of collagen and the maximum absorbance after an addition of collagen were measured, and a percent of the inhibition was determined, compared with the control.

[2] = biological target: Calmodulin-Dependent Phosphodiesterase (Ca^2+ PDE); test: Calmodulin-Dependent Phosphodiesterase Inhibition (Ca^2+ PDE); type: biochemical, rat; conditions: [^3 H]-cGMP, 30° C.
Procedure, shortened: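 Partially purified rat brain Ca²⁺ PDE with calf brain calmodulin, Tris-HCl pH 8.0, MgCl2, CaCl2; [³H]-cGMP substrate, 15 min at 30 °C. Product converted by 5'-nucleotidase, [³H]-guanosine isolated on cation exchange and counted. IC50 as μM giving 50% inhibition.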

[3] = concentration relaxing KCl-contracted strain to 50%, cumulative administration
[4] = washed platelets, collagen, 37° C.

Row | EC50 [1, 3] | IC50 (washed platelets; [4]) | IC50 [2] | Structure (SMILES) | EC50 [1] | IC50 (washed platelets)
1 | 3.3 ± 1.4 µM | 6 µM | – | O=C(OCc1ccccc1)N1CCN(CC(Cc2ccc(O)cc2)NS(=O)(=O)c2cccc3cnccc23)CC1 (stereo not drawn) [Example 68, N-[2-(4-benzyloxycarbonylpiperazinyl)-1-(p-hydroxybenzyl)ethyl]-5-isoquinolinesulfonamide] | – | –
2 | – | 10 µM | – | CN(C(Cc1ccc(OS(=O)(=O)c2cccc3cnccc23)cc1)CN1CCN(S(=O)(=O)c2ccccc2)CC1)S(=O)(=O)c1cccc2cnccc12 (stereo not drawn) [Example 61, N-{2-[(4-Benzenesulfonyl)Piperazinyl]-1-[P-(5-Isoquinolinesulfonyloxy)Benzyl]Ethyl}-N-Methyl-5-Isoquinolinesulfonamide] | – | –
3 | 4.4 µM | 19 µM | 19 µM | CC(C=Cc1ccc(Cl)cc1Cl)NCCNS(=O)(=O)c1cccc2cnccc12 (stereo not drawn) [Example 156, N-[2-(2,4-Dichloro-α-Methylcinnamylamino)Ethyl]-5-Isoquinolinesulfonamide] | – | –
4 | 7.6 µM | 73 µM | – | O=C(OCc1ccccc1)N1CCN(C(=O)[C@H](Cc2ccc(O)cc2)NS(=O)(=O)c2cccc3cnccc23)CC1 [Example 29, 1-Benzyloxycarbonyl-4-[N-(5-Isoquinolinesulfonyl)Tyrosyl]Piperazine] | – | –
5 | 1 µM | 51 µM | 9.4 µM | O=S(=O)(NCCNCC=Cc1ccc(Cl)cc1)c1cccc2cnccc12 [Example 172, N-[2-(4-Chlorocinnamylamino)ethyl]-5-Isoquinolinesulfonamide] | – | –
6 | – | 12 µM | – | O=S(=O)(Nc1ccccc1NCC=Cc1cccnc1)c1cccc2cnccc12 [Example 145, N-{2-[3-(3-pyridyl)allylamino]phenyl}-5-isoquinolinesulfonamide] | – | –
7 | 8.4 µM | 38 µM | 4.7 µM | O=S(=O)(NCCNCC=CC=CC=Cc1ccc(C(F)(F)F)cc1)c1cccc2cnccc12 [Example 181] | – | –
8 | – | 4.7 µM | – | O=S(=O)(NC(Cc1ccc(O)cc1)CN1CCN(c2ncccn2)CC1)c1cccc2cnccc12 (stereo not drawn) [Example 40, N-{1-(p-hydroxybenzyl)-2-[4-(2-pyrimidyl)piperazinyl]ethyl}-5-isoquinolinesulfonamide] | – | –
9 | 3.2 µM | 36 µM | 8.6 µM | CC(C=Cc1cccc(Cl)c1)NCCNS(=O)(=O)c1cccc2cnccc12 (stereo not drawn) [Example 157] | – | –
10 | 5.1 µM | 24 µM | 92 µM | CC(C=Cc1ccc([N+](=O)[O-])cc1)NCCNS(=O)(=O)c1cccc2cnccc12 (stereo not drawn) [Example 159] | – | –
11 | 1.4 µM | 90 µM | – | CC(C=Cc1ccc(F)cc1)NCCNS(=O)(=O)c1cccc2cnccc12 (stereo not drawn) [Example 166, N-[2-(4-Fluoro-α-Methylcinnamylamino)Ethyl]-5-Isoquinolinesulfonamide] | – | –
12 | 2.8 µM | 51 µM | 7.8 µM | O=S(=O)(NCCNCC=Cc1ccc(C(F)(F)F)cc1)c1cccc2cnccc12 [Example 179, N-[2-(4-Trifluoromethylcinnamylamino)Ethyl]-5-Isoquinolinesulfonamide] | – | –
13 | – | 10 µM | – | CN(C(Cc1ccc(OS(=O)(=O)c2cccc3cnccc23)cc1)CN1CCN(C(=O)OCc2ccccc2)CC1)S(=O)(=O)c1cccc2cnccc12 (stereo not drawn) [Example 60, N-{2-(4-Benzyloxycarbonylpiperazinyl)-1-[P-(5-Isoquinolinesulfonyloxy)Benzyl]Ethyl}-N-Methyl-5-Isoquinolinesulfonamide] | – | –
14 | 14 µM | 93 µM | – | O=C(NCc1ccccc1)N1CCN(CC(Cc2ccc(O)cc2)NS(=O)(=O)c2cccc3cnccc23)CC1 (stereo not drawn) [Example 71, N-[2-(4-benzylaminocarbonylpiperazinyl)-1-(p-hydroxybenzyl)ethyl]-5-isoquinolinesulfonamide] | – | –
15 | 4.1 µM | 55 µM | – | CC(C=Cc1ccc(F)cc1F)NCCNS(=O)(=O)c1cccc2cnccc12 (stereo not drawn) [Example 155] | – | –
16 | 1.8 µM | 10 µM | – | CN(C(Cc1ccc(OS(=O)(=O)c2cccc3cnccc23)cc1)CN1CCN(c2ncccn2)CC1)S(=O)(=O)c1cccc2cnccc12 (stereo not drawn) [Example 41, N-{1-[p-(5-isoquinolinesulfonyloxy)benzyl]-2-[4-(2-pyrimidyl)piperazinyl]ethyl}-N-methyl-5-isoquinolinesulfonamide] | – | –

Row | EC50 [1, 3] | IC50 (washed platelets; [4]) | IC50 [2] | Structure (SMILES) | EC50 [1] | IC50 (washed platelets)
17 | 1.2 µM | 52 µM | – | CC(C=Cc1ccc(Br)cc1)NCCNS(=O)(=O)c1cccc2cnccc12 (stereo not drawn) [Example 167] | – | –
18 | 1.5 µM | 25 µM | – | CC(C=Cc1ccc(Cl)cc1)NCCNS(=O)(=O)c1cccc2cnccc12 (stereo not drawn) [Example 153] | – | –
19 | 0.88 µM | 20 µM | 1.2 µM | CN(C(Cc1ccc(O)cc1)CN1CCCN(C(=O)OCc2ccccc2)CC1)S(=O)(=O)c1cccc2cnccc12 (stereo not drawn) [Example 113] | – | –
20 | – | 39 µM | – | COc1ccc(N2CCN(CC(Cc3ccc(N)cc3)NS(=O)(=O)c3cccc4cnccc34)CC2)cc1 (stereo not drawn) [Example 127, N-{1-(p-aminovenzyl)-2-[4-(p-methoxyphenyl)piperazinyl]ethyl}-5-isoquinolinesulfonamide] | – | –
21 | 3.6 µM | 26 µM | – | CC(C=Cc1ccc(C(C)C)cc1)NCCNS(=O)(=O)c1cccc2cnccc12 (stereo not drawn) [Example 168] | – | –
22 | – | 10 µM | – | Cc1ccc(S(=O)(=O)N(C)c2ccc(CC(C(=O)N3CCN(c4ccccc4)CC3)N(C)S(=O)(=O)c3cccc4cnccc34)cc2)cc1 (stereo not drawn) [Example 26, 1-{N-(5-isoquinolinesulfonyl)-N-methyl-p-[N'-methyl-N'-(p-toluenesulfonyl)amino]phenylalanyl}-4-phenylpiperazine] | – | –
23 | 4.8 µM | 22 µM | – | O=C(OCc1ccccc1)N1CCCN(C(=O)[C@H](Cc2ccc(O)cc2)NS(=O)(=O)c2cccc3cnccc23)CC1 [Example 123, 1-Benzyloxycarbonyl-4-[N-(5-Isoquinolinesulfonyl)Tyrosyl]Homopiperazine] | – | –
24 | – | 10 µM | – | COc1ccc(N2CCN(CC(Cc3ccc(N4C(=O)c5ccccc5C4=O)cc3)N(C)S(=O)(=O)c3cccc4cnccc34)CC2)cc1 (stereo not drawn) [Example 126, N-{2-[4-(P-Methoxyphenyl)Piperazinyl]-1-(P-Phthalimidebenzyl)Ethyl}-N-Methyl-5-Isoquinolinesulfonamide] | – | –
25 | 1.8 µM | 56 µM | – | Cc1ccc(C=CC(C)NCCNS(=O)(=O)c2cccc3cnccc23)cc1 (stereo not drawn) [Example 160] | – | –
26 | – | 2.8 µM | – | CN(C(Cc1ccc(OS(=O)(=O)c2cccc3cnccc23)cc1)CN1CCN(C(=O)c2ccccc2)CC1)S(=O)(=O)c1cccc2cnccc12 (stereo not drawn) [Example 74, N-{2-(4-Benzoylpiperazinyl)-1-[P-(5-Isoquinolinesulfonyloxy)Benzyl]Ethyl}-N-Methyl-5-Isoquinolinesulfonamide] | – | –
27 | 2.7 µM | 56 µM | 24 µM | CC(C)c1ccc(C=CCNCCNS(=O)(=O)c2cccc3cnccc23)cc1 [Example 177] | – | –
28 | – | 60 µM | – | CC(C=Cc1ccccc1)NCCNS(=O)(=O)c1cccc2cnccc12 (stereo not drawn) [Example 154, N-[2-(α-Methylcinnamylamino)Ethyl]-5-Isoquinolinesulfonamide] | – | –
29 | 54 µM | 100 µM | – | CN(C(Cc1ccc(O)cc1)CN1CCCNCC1)S(=O)(=O)c1cccc2cnccc12 (stereo not drawn) [Example 114, N-[1-(p-hydroxy)benzyl-2-homopiperazinylethyl]-N-methyl-5-isoquinolinesulfonamide] | – | –
30 | – | 39 µM | – | CN(Cc1ccccc1)C1CCN(CC(Cc2ccc(O)cc2)N(C)S(=O)(=O)c2cccc3cnccc23)CC1 (stereo not drawn) [Example 97, N-{2-[4-(N-Benzyl-N-Methylamino)Piperidino]-1-(P-Hydroxybenzyl)Ethyl}-N-Methyl-5-Isoquinolinesulfonamide] | – | –
31 | 0.67 µM | 70 µM | – | CN(C(Cc1ccc(O)cc1)CN1CCN(c2ccc(F)cc2)CC1)S(=O)(=O)c1cccc2cnccc12 (stereo not drawn) [Example 50, N-{1-(p-hydroxybenzyl)-2-[4-(p-fluorophenyl)piperazinyl]ethyl}-N-methyl-5-isoquinolinesulfonamide] | – | –

Row | Structure (SMILES) | EC50 [1, 3] | IC50 (washed platelets; [4]) | IC50 [2] | EC50 [1] | IC50 (washed platelets)
32 | O=S(=O)(NCCNCC=Cc1ccc(Br)cc1)c1cccc2cnccc12 [Example 176, N-[2-(4-Bromophenylcinnamylamino)ethyl]-5-Isoquinolinesulfonamide] | – | – | 8.5 µM | 1.2 µM | 55 µM

Source: patent US5245034A, “Compound having vessel smooth muscle relaxation activity” (Hidaka; Kiroyoshi, priority 1988, dated 1993)
